# Structures can show the parent of a compound that is named as a salt.
# Tests used:
# [1] = Oral bioavailability in Beagle dog (plasma AUC oral vs intravenous); type: in vivo; conditions: 3.0 mg/kg, plasma sampled 30 minutes to 24 hours
# Protocol: Each of the monohydrate and trihydrate crystals of Compound (I) produced in Examples 4 and 6 was orally administered to a Beagle dog at a dose of 3.0 mg/kg. After 30 minutes, 1 hour, 2 hours, 3 hours, 4 hours, 6 hours, 8 hours and 24 hours of the administration, the blood was collected, the concentration of Compound (I) in the plasma was measured, and the area under plasma concentration curve (AUC) was obtained.
# [2] = Storage stability of crystals; type: physicochemical; conditions: storage for 1 month
# From the text: Still further, the monohydrate and trihydrate crystals of the present invention can be easily produced from α-type anhydride crystals and β-type anhydride crystals.
# [3] = Dissolution rate in gastric juice model solution (JP-1 solution); type: physicochemical; conditions: 20 mg crystals in 500 ml JP-1 solution, 37° C., FIG. 9
# Protocol: Each 20 mg of the monohydrate and trihydrate crystals of Compound (I) produced in Examples 4 and 6 was added to 500 ml of a gastric juice model solution (JP-1 solution according to Japan Pharmacopeia) of 37° C., and the concentration of Compound (I) in the solution was measured over the course of time.
SMILES,bioavailability (ratio of the AUC value of oral administration to that of intravenous administration) ([1]; hydrochloride monohydrate) [%],stability (chemical and physical) on storage [2],bioavailability (ratio of the AUC value of oral administration to that of intravenous administration) ([1]; hydrochloride trihydrate) [%],dissolution rate [3]
"O=CN1CCC(C(=O)NCCN2CCC(=C3c4ccccc4C=Cc4ccccc43)CC2)CC1 [monohydrate crystals, N-(2-(4-(5H-dibenzo(a,d)cyclohepten-5-ylidene)-piperidino)ethyl)-1-formyl-4-piperidinecarboxamide hydrochloride monohydrate]",73.4,unchanged even after storage for 1 month,,
"O=CN1CCC(C(=O)NCCN2CCC(=C3c4ccccc4C=Cc4ccccc43)CC2)CC1 [trihydrate crystals, N-(2-(4-(5H-dibenzo[a,d]cyclohepten-5-ylidene)-piperidino)ethyl)-1-formyl-4-piperidinecarboxamide hydrochloride trihydrate]",,,49.6,high dissolution rate compared to the monohydrate crystals

# Source: patent US6444821B1, “Crystals of piperidine derivatives, intermediates for production of the same, and process for producing the same” (Ajinomoto Co., Inc., priority 1995, dated 2002)
